Paper PMC8352984, “Estrogen mediates sex differences in preoptic neuropeptide and pituitary hormone production in medaka” (Communications Biology, 2021)

Legend:
Type in all cases: cell-based, medaka (Oryzias latipes)
[1] = tested on: luteinizing hormone β subunit (lhb) gene expression; assay: Ex vivo pituitary organ culture, real-time PCR of lhb; conditions: for lhb expression (in words): 10^-5 M, 24 h, 25 °C, vs vehicle;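 on lhb expression (Fig. 8, lhb): relative expression with female control samples set to 1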
Description: (§1) Fig. 8 Pacap and Vip have pleiotropic effects on the expression of anterior pituitary hormones. The effects of Pacap and Vip on gene expression levels of follicle-stimulating hormone β subunit (fshb), luteinizing hormone β subunit (lhb), thyroid-stimulating hormone β subunit (tshb), growth hormone (gh), somatolactin (sl), prolactin (prl), and pro-opiomelanocortin (pomc) were investigated by using male and female pituitaries cultured ex vivo (n = 6 per group, except male pituitary supplemented with Vip, where n = 5). Data were expressed as means with error bars representing standard error of the mean. Statistical differences were assessed by Dunnett’s post-hoc test. *p < 0.05; **p < 0.01; ***p < 0.001.
(§2) The pituitaries from five male or female fish were pooled for each sample and cultured ex vivo in Leibovitz’s L-15 medium supplemented with 5% charcoal-stripped fetal bovine serum as described elsewhere. The medium was further supplemented with 10^−5 M medaka Pacap or Vip, or vehicle alone. After 24 h of culture at 25 °C, the pituitaries were processed for total RNA extraction and cDNA synthesis by using the RNeasy Plus Micro Kit (Qiagen) and SuperScript VILO cDNA Synthesis Kit (Thermo Fisher Scientific), respectively. Real-time PCR was performed on the LightCycler 480 System II using LightCycler 480 SYBR Green I Master (Roche Diagnostics). The cycle conditions were: 95 °C for 5 min followed by 45 cycles of 95 °C for 10 sec, 60 °C for 10 sec and 72 °C for 10 sec. Melting curve analysis was performed as described above. Data were normalized to the geometric mean of three reference genes, actb, gapdh (encoding glyceraldehyde-3-phosphate dehydrogenase; National BioResource Project (NBRP) Medaka clone ID olbrno9_f15) and rpl13 (encoding ribosomal protein L13; NBRP Medaka clone ID olovano51_b24), according to Vandesompele et al.[63]. The primers used for real-time PCR are listed in Supplementary Table 3.

[2] = tested on: follicle-stimulating hormone β subunit (fshb) gene expression; assay: Ex vivo pituitary organ culture, real-time PCR of fshb;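 on fshb expression (Fig. 8, fshb): relative expression with female control samples set to 1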
Description: as §1, §2

medaka Adcyap1r1b = assay: Receptor activation assay, cAMP-responsive luciferase in COS-7 cells
Description: (§3) The number at each node indicates bootstrap values for 1000 replicates. Scale bar represents 0.1 substitutions per site. SCTR, secretin receptor. For species names and GenBank accession numbers, see Supplementary Table 2. b Ability of Pacap and Vip to activate medaka Pacap/Vip receptors. […] Representative sections of pituitary at different levels along the anterior–posterior axis are shown. Arrowheads indicate expression signals. […] Scale bars represent 50 μm. f Identity of the pituitary cells expressing each Pacap/Vip receptor. The spatial expression pattern of each receptor was compared with that of each pituitary hormone gene in the RPD and PI. Left and middle panels show images of the expression of the indicated receptor (adcyap1r1a, adcyap1r1b, or vipr2b; green) and pituitary hormone gene (sl, prl, or pomc; magenta) in the same sections; right panels show the merged images with nuclear counterstaining (blue). […] Scale bars represent 20 μm. Quantitative data were expressed as means with error bars representing standard error of the mean. […] PI pars intermedia, PPD proximal pars distalis, RPD rostral pars distalis.
(§4) Receptor activation assay was performed essentially as described previously. Medaka Pacap (38 amino acids) and Vip (28 amino acids) polypeptides with amidated C termini were synthesized by Scrum (Tokyo, Japan). cDNA fragments encoding the full-length Adcyap1r1a (GenBank accession number XM_023965124), Adcyap1r1b (XM_011474272), Vipr1a (XM_023950180), Vipr1b (XM_004079106), Vipr2a (XM_023950048) and Vipr2b (XM_023965399) were PCR-amplified and subcloned into the expression vector pcDNA3.1/V5-His-TOPO (Thermo Fisher Scientific). Each of the resulting receptor expression constructs was transiently transfected into COS-7 cells (obtained from and authenticated by Riken BRC Cell Bank), together with the cAMP-responsive luciferase reporter vector pGL4.29 (Promega) and the internal control vector pGL4.74 (Promega) at a ratio of 11:18:1 for 6 h by using Lipofectamine LTX and Plus reagent (Thermo Fisher Scientific). Forty-two hours after transfection, cells were stimulated with Pacap or Vip at doses of 0, 10^−11, 10^−10, 10^−9, 10^−8, 10^−7, 10^−6 and 10^−5 M for 6 h. After cell lysis, luciferase activity was measured by using the Dual-Luciferase Reporter Assay System (Promega). Each assay was performed in triplicate and repeated three times independently.

medaka Vipr1a = assay: as above
Description: as §3, §4

medaka Adcyap1r1a = assay: as above
Description: as §3, §4

medaka Vipr1b = assay: as above
Description: as §3, §4

medaka Vipr2a = assay: as above
Description: as §3, §4

medaka Vipr2b = assay: as above
Description: as §3, §4

[3] = tested on: pro-opiomelanocortin (pomc) gene expression; assay: Ex vivo pituitary organ culture, real-time PCR of pomc;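 on pomc expression (Fig. 8, pomc): relative expression with female control samples set to 1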
Description: as §1, §2

[4] = COS-7 cells, 6 h stimulation, 10^-11 to 10^-5 M, luciferase, triplicate, repeated three times, read-out: half-maximal effective concentration (EC50)

Question: Which results are given for “Pituitary adenylate cyclase-activating polypeptide [Pacap]”?
Answer: lhb expression (in words) ([1]; female pituitaries): increased; lhb expression (Fig. 8, lhb) ([1]; female, replicate 1): 2.134; lhb expression (Fig. 8, lhb) ([1]; female, replicate 2): 1.510; lhb expression (Fig. 8, lhb) ([1]; female, replicate 3): 1.040; lhb expression (Fig. 8, lhb) ([1]; female, replicate 4): 2.513; lhb expression (Fig. 8, lhb) ([1]; female, replicate 5): 1.735; lhb expression (Fig. 8, lhb) ([1]; female, replicate 6): 1.319; lhb expression (in words) ([1]; male pituitaries): increased; lhb expression (Fig. 8, lhb) ([1]; male, replicate 1): 3.240; lhb expression (Fig. 8, lhb) ([1]; male, replicate 2): 1.453; lhb expression (Fig. 8, lhb) ([1]; male, replicate 3): 3.021; lhb expression (Fig. 8, lhb) ([1]; male, replicate 4): 2.751; lhb expression (Fig. 8, lhb) ([1]; male, replicate 5): 1.229; lhb expression (Fig. 8, lhb) ([1]; male, replicate 6): 1.907; fshb expression (in words) ([2]; female pituitaries, 10^-5 M, 24 h, 25 °C, vs vehicle): significantly reduced; fshb expression (Fig. 8, fshb) ([2]; female, replicate 1): 0.383; fshb expression (Fig. 8, fshb) ([2]; female, replicate 2): 0.806; fshb expression (Fig. 8, fshb) ([2]; female, replicate 3): 0.807; fshb expression (Fig. 8, fshb) ([2]; female, replicate 4): 0.427; fshb expression (Fig. 8, fshb) ([2]; female, replicate 5): 0.650; fshb expression (Fig. 8, fshb) ([2]; female, replicate 6): 0.545; fshb expression (Fig. 8, fshb) ([2]; male, replicate 1): 0.173; fshb expression (Fig. 8, fshb) ([2]; male, replicate 2): 0.236; fshb expression (Fig. 8, fshb) ([2]; male, replicate 3): 0.293; fshb expression (Fig. 8, fshb) ([2]; male, replicate 4): 0.230; fshb expression (Fig. 8, fshb) ([2]; male, replicate 5): 0.290; fshb expression (Fig. 8, fshb) ([2]; male, replicate 6): 0.452; receptor activation, increase in intracellular cAMP levels (in words) (medaka Adcyap1r1b; COS-7 cells, 6 h): dose-dependently activated all six receptors; EC50 (medaka Adcyap1r1b; [4]): 0.116 nM; greater potency of Pacap as compared with Vip (medaka Adcyap1r1b; ratio of EC50): over 100 fold; potency of Pacap and Vip compared (in words) (medaka Vipr1a): fairly similar potencies; receptor activation, increase in intracellular cAMP levels (in words) (medaka Vipr1a; COS-7 cells, 6 h): dose-dependently activated all six receptors; EC50 (medaka Vipr1a; [4]): 0.851 nM; receptor activation, increase in intracellular cAMP levels (in words) (medaka Adcyap1r1a; COS-7 cells, 6 h): dose-dependently activated all six receptors; EC50 (medaka Adcyap1r1a; [4]): 0.245 nM; greater potency of Pacap as compared with Vip (medaka Adcyap1r1a; ratio of EC50): over 100 fold; receptor activation, increase in intracellular cAMP levels (in words) (medaka Vipr1b; COS-7 cells, 6 h): dose-dependently activated all six receptors; EC50 (medaka Vipr1b; [4]): 14.8 nM; Pacap less potent as compared with Vip (medaka Vipr1b; ratio of EC50, Pacap is the weaker): approximately 20 fold; potency of Pacap and Vip compared (in words) (medaka Vipr2a): fairly similar potencies; receptor activation, increase in intracellular cAMP levels (in words) (medaka Vipr2a; COS-7 cells, 6 h): dose-dependently activated all six receptors; EC50 (medaka Vipr2a; [4]): 3560 nM; potency of Pacap and Vip compared (in words) (medaka Vipr2b): fairly similar potencies; receptor activation, increase in intracellular cAMP levels (in words) (medaka Vipr2b; COS-7 cells, 6 h): dose-dependently activated all six receptors; EC50 (medaka Vipr2b; [4]): 2780 nM; pomc expression (Fig. 8, pomc) ([3]; female, replicate 1): 1.650; pomc expression (Fig. 8, pomc) ([3]; female, replicate 2): 0.962; pomc expression (Fig. 8, pomc) ([3]; female, replicate 3): 1.174; pomc expression (Fig. 8, pomc) ([3]; female, replicate 4): 1.174; pomc expression (Fig. 8, pomc) ([3]; female, replicate 5): 1.328; pomc expression (Fig. 8, pomc) ([3]; female, replicate 6): 1.116; pomc expression (in words) ([3]; male pituitaries, 10^-5 M, 24 h, 25 °C, vs vehicle): reduced; pomc expression (Fig. 8, pomc) ([3]; male, replicate 1): 5.882; pomc expression (Fig. 8, pomc) ([3]; male, replicate 2): 3.434; pomc expression (Fig. 8, pomc) ([3]; male, replicate 3): 4.022; pomc expression (Fig. 8, pomc) ([3]; male, replicate 4): 3.555; pomc expression (Fig. 8, pomc) ([3]; male, replicate 5): 1.951; pomc expression (Fig. 8, pomc) ([3]; male, replicate 6): 4.484
